From PMC11277004, “Di- and Triselenoesters—Promising Drug Candidates for the Future Therapy of Triple-Negative Breast Cancer” (International Journal of Molecular Sciences, 2024)

Key:
Type in all cases: cell-based, human
[1] = test system: MCF-7 and MDA-MB-231 breast cancer cells; assay: Western immunoblot of Akt and AMPK; conditions: 0.5 and 1 μM, 24 h
Protocol: (§1) Protein concentrations in the samples were determined using the Lowry method. Samples were prepared containing equal amounts of protein (30 μg/lane) and an appropriate amount of Laemmli buffer (120 mM Tris-HCl, 20% glycerol, 0.4% SDS, and 0.02% bromophenol blue, pH 6.8) containing 100 mM 1,4-dithiothreitol (DTT; Roche, Basel, Switzerland). Samples were denatured at 95 °C for 10 min. The proteins were separated using the SDS-PAGE method described by Laemmli. Proteins were separated on 12% SDS-PAGE gels. […] Transfer conditions were 250 mA, at 4-8 °C, overnight in freshly prepared Towbin buffer. Membranes were blocked with 5% non-fat dried milk (Santa Cruz Biotechnology, Dallas, Texas, USA) in TBS-T (20 mM Tris, 150 mM NaCl, 0.1% Tween-20, pH 7.6) for 1 h at room temperature with gentle shaking. After the blocking step, membranes were washed four times with TBS-T (4 × 15 min) and incubated with primary monoclonal antibodies (against β-actin, p53 (both from Santa Cruz Biotechnology, Dallas, TX, USA), Akt, AMPK (both from BD Transduction Laboratories, San Jose, CA, USA), Bax, caspase 7, and caspase 9 (all from Cell Signaling Technology, Danvers, MA, USA)). Membranes were incubated with primary antibodies overnight at 4 °C. […]

[2] = test system: MCF-7 and MDA-MB-231 breast cancer cells; assay: Autophagy induction, summary statement over cell lines; conditions: vs EDAG-8; 0.5 and 1 µM, 24 h
Protocol: The effects of the novel selenoesters and a reference compound (cisplatin) at concentrations of 0.5 and 1 µM (after 24 h) on the activation of the autophagy process in MCF-7, MDA-MB-231, and MCF-10A cells were evaluated utilizing the Autophagy Assay kit, Red (ImmunoChemistry Technologies, Bloomington, MN, USA) via flow cytometry (flow cytometer from BD FACSCanto II, BD Biosciences Systems, San Jose, CA, USA). The entire assay was performed according to the manufacturer’s instructions. After drug treatment, unfixed cells were washed and resuspended in PBS at a concentration of 5 × 10^5 cells/mL. Then, 490 µL each of the cell suspension was taken, transferred to test tubes, and 10 µL of Autophagy Probe, Red solution (previously diluted 1:5 in PBS) was added and incubated (30 min, 37 °C, in the dark). After incubation, the cells were washed and resuspended in cellular assay buffer, before finally adding fixative at a ratio of 1:5 (v/v). After this step, the prepared samples were immediately measured using a flow cytometer (BD FACSCanto II; 10,000 events measured), and the percentage of cells with an occurring autophagy process was calculated using the FACSDiva 6.0 software (both from BD Biosciences Systems, San Jose, CA, USA). The equipment calibration was performed using the BD Cytometer Setup and Tracking Beads (BD Biosciences, San Diego, CA, USA).

[3] = test system: MCF-7 and MDA-MB-231 breast cancer cells; assay: Western immunoblot of Bax, caspase 7 and 9, p53; conditions: 0.5 and 1 μM, 24 h
Protocol: as §1

[4] = Viability (MTT) and DNA biosynthesis, summary statements over the tested cell lines; conditions: human; MTT, 24 h; range over the tested cell lines; read-out: IC50, cytotoxic activity (range over cell lines)
Protocol: The MTT assay was used to determine the cytotoxic effects of the compounds in the study on MCF-7 and MDA-MB-231 breast cancer cells as well as MCF-10A normal human breast epithelial cells based on Carmichael’s method. All cultured cell lines were treated with varied concentrations of the tested compounds in the medium (0.5–5 µM) and incubated for 24 h in an incubator providing optimal conditions for cell culture growth (37 °C temperature, 5% CO2, and 90–95% humidity) in 6-well plates (baseline seeding density: 5 × 10^5 cells/well). After this time, the medium was removed, and the cell monolayer was washed with warm phosphate-buffered saline (PBS) without calcium and magnesium. In the next step, PBS and MTT solution in PBS (5 mg/mL) were added to each well to obtain a final MTT concentration of 0.5 mg/mL, and then the cells were incubated for 4 h (37 °C temperature, 5% CO2, 90–95% humidity). After the incubation period, the contents of each well were removed, 1 mL of DMSO was added to dissolve the formazan, and then the plate with the added DMSO was mixed for 5–10 min on a microplate shaker (Boeco, Hamburg, Germany). Then, 10 µL of Sorensen’s glycine buffer (a solution of 0.1 M glycine and 0.1 M sodium chloride adjusted to pH 10.5 with 0.1 M sodium hydroxide) was added. The absorbance of the obtained solution was immediately measured at a wavelength of λ = 570 nm using a Thermo Scientific Evolution 201 UV–VIS spectrophotometer (Thermo Fisher Scientific, Waltham, MA, USA). The absorbance result obtained in the control cells (without the addition of the tested compounds) was taken as 100%, while the viability of cells incubated with the tested compounds was presented as a percentage of the control value.
The study of the antiproliferative properties (intensity of [^3H]-thymidine incorporation into cell DNA) of the tested derivatives against tested cell lines (MCF-7, MDA-MB-231, MCF-10A) was performed after 24 h incubation with varied concentrations of the tested compounds in the medium (0.5–5 µM) in 6-well plates (baseline seeding density: 5 × 10^5 cells/well). After 24 h the medium was removed, the cells were washed with PBS (Corning, Kennebunk, ME, USA), and a fresh medium was added. […] Radioactivity was measured using the Scintillation Counter 1900 TR, TRI-CARB (Packard, Perkin Elmer, Inc., San Jose, CA, USA). The intensity of DNA biosynthesis in the analyzed cells was expressed in terms of dpm/well. The result of the radioactivity measurement in the control cells (without the addition of tested compounds) was taken as 100%, while the values of cells incubated with the tested compounds were presented as a percentage of the control value.

Row | Structure (SMILES) | expression of Akt and AMPK (Western blot, in words) [1] | fold weaker pro-autophagic activity compared to the most active derivative [2] | expression of Bax, caspase 7 and 9, p53 (Western blot, in words) [3] | IC50 at 24 h [4] [nM]
1 | N.N.[Cl][Pt][Cl] [Cisplatin, reference compound] | did not significantly affect | – | – | –
2 | CC(=O)C[Se]C(=O)c1ccc(C(=O)[Se]CC(C)=O)cc1 [EDAG-1, Se,Se-bis(2-oxopropyl) benzene-1,4-bis(carboselenoate)] | – | approximately 2 fold | slightly weaker effect | 410 to 710
3 | CC(=O)C[Se]C(=O)c1cc(C(=O)[Se]CC(C)=O)cc(C(=O)[Se]CC(C)=O)c1 [EDAG-8, Se,Se,Se-tris-(2-oxopropyl) benzene-1,3,5-tris-(carboxyselenoate)] | most active | – | most active | 410 to 710
